Data taken from US11655239B2 (SHANGHAI INSTITUTE OF MATERIAL MEDICA, CHINESE ACADEMY OF …, priority 2019, dated 2023).

How the values were obtained:
[1] = tested on: bronchial epithelial cell line Beas-2B; test: Cytotoxic activity test (MTS), Beas-2B; assay type: cell-based, human; conditions: 5 μM
Protocol: (§1) Experimental objective: The cytotoxic activity of compound S15 on bronchial epithelial cell line Beas-2B and lung fibroblast cell line MRC-5 was tested.
(§2) 1) The human bronchial epithelial cell line Beas-2B and the human embryonic lung fibroblast cell line MRC-5 were collected, and inoculated at a certain density (about 5000-10000 cells) on a 96-well plate (the edge wells were filled with sterile water or PBS). A control was set on each plate (100 μL of culture medium was added);
(§3) 2) The plate was incubated overnight at 37° C., 5% CO2. The plate was turned upside down and observed under the microscope.
(§4) 3) The solutions of different concentrations of the compounds to be tested were added to each well, and a control well (culture medium and MTS solution with cells but no drug) and a blank well (without cells, medium and MTS solution) were set, 3 to 5 repetition wells were set for each group. Incubation was performed at 37° C. for 48-72 hours.
(§5) 4) 10 μL/well of MTS/PMS (20:1, Promega Corp) solution was added to each well containing 100 μL of culture medium, and then the plate was gently shaken. The plate was incubated at 37° C. for 2 to 4 hours.
(§6) 5) M5 microplate reader (Molecular Device, USA) was used to measure the absorbance of the solution at 490 nm. […]

[2] = tested on: mouse model of BLM-induced lung injury; test: Histopathological evaluation of lung sections, H&E staining; assay type: in vivo; conditions: mice
Protocol: Experimental objective: This group of experiments aimed to investigate the therapeutic potential of the compound S15 in acute lung injury and inflammation induced by bleomycin (BLM).
Experimental grouping (8 mice per group):
Model group (BLM): the mice received BLM (1.7 U/kg) via intratracheal instillation;
Compound S15 group (S15): this group was divided into three dose groups, namely 30, 60 and 90 mg/kg;
Positive control group (Nintedanib): Nintedanib administration group;
Negative control group (Control): only saline was used.
1) Material acquisition: The fresh tissue was fixed in 4% paraformaldehyde for more than 24 hours. The tissue was removed from the fixative solution and trim the tissue at the target site. The trimmed tissue was marked and placed in the dehydration box for later use.
2) Dehydration: The dehydration box was put in the dehydrator and different concentration gradients of ethanol was used sequentially for dehydration. 75% ethanol (4 hours), 85% ethanol (2 hours), 90% ethanol (2 hours), 95% ethanol (1 hour), absolute ethanol I (30 minutes), absolute ethanol II (30 minutes), alcohol benzene (5-10 minutes), xylene I (5-10 minutes), xylene II (5-10 minutes), wax I (1 hour), wax II (1 hour), wax III (1 hour).
3) Embedment: The wax melted at high temperature was put into the embedding frame; before the wax was cooled and solidified, the tissue was taken out of the dehydration box, put into the embedding frame according to the requirements of the embedding surface, marked and cooled at −20° C. After completely solidified, the wax block was removed from the embedding frame and trimmed.
4) Section: The trimmed wax block was put on a paraffin microtome for sectioning. The section thickness was about 4 μm. The sections were floated on warm water at 40° C. of the flotation workstation and flatten. A glass slide was used to lift the tissue from the warm water, and put into a 60° C. oven for dryness. After the water was dried and the wax melted, the glass slide was taken out and stored at ambient temperature for later use. […]

[3] = tested on: lung fibroblast cell line MRC-5; test: Cytotoxic activity test (MTS), MRC-5; assay type: cell-based, human; conditions: 5 μM
Protocol: as §1, §2, §3, §4, §5, §6

Question: Which results are given for `COC(=O)c1ccc2c(c1)NC(=O)/C2=C(\Nc1ccc(N(C)C(=O)CN2CCN(C)CC2)cc1)c1ccccc1` [Nintedanib]?
Answer: cytotoxic activity on Beas-2B [1]: significant cytotoxicity; BLM-induced lung injury, H&E staining ([2]; Effect example 4, S15 30, 60, 90 mg/kg, Nintedanib 30 mg/kg, oral qd 12 days): improved significantly; BLM-induced lung injury, H&E staining ([2]; Effect example 7, 30 mg/kg oral qd 12 days): significantly improved; cytotoxic activity on MRC-5 [3]: significant cytotoxicity
